Measurements from patent US8916536B2, “Bone-targeting bisphosphonate duplex drugs” (priority 2010, dated 2014).
Counter-ions that a name gives are not always drawn.

Tests used:
[1] = Hydroxyapatite binding of nucleoside-BPs; assay type: physicochemical
Description: It is known that the BPs moiety of conjugates preserves its high affinity for the bone matrix even when coupled to a bulk residue^17,41 The high affinity to the bone matrix is based on the strong binding properties of BPs to hydroxyapatite^42, 43, 44. For this reasons, we analyzed the adsorption properties of 5-FdU-ale and 5-FdU to hydroxyapatite.
5-FdU (246 mg, 1 mmol) or 5-FdU-ale (475 mg) were dissolved in distilled water (100 ml). The A260-units of the obtained solution and the absorbance ratios of 250/260 and 280/260 were determined using an UV-spectrophotometer. After addition of solid hydroxyapatite as listed in Table 2 the obtained suspension was stirred at room temperature for 24 h. Then, an aliquot (1 ml) of the suspension was filtered through a sterile filter and the A260-units of the filtrate were measured. The amount of drug bound to hydroxyapatite was calculated on the basis of the decreased A260-units of the suspension.
(§1) A solution of 5-FdU-ale (475 mg) in 100 ml H2O was acidified to pH 2 by adding HCl and stirred at 50° C. for 24 h, followed by neutralization with solid sodium carbonate. UV-active degradation products were not detectable at 254 nm by TLC-analysis with CHCl3/MeOH (80:20) using silica gel plates. The hydroxyapatite binding of the pretreated 5-FdU-ale was analyzed as described above.

SF-539 = test: NCI 60-cell line in vitro screen (SRB), growth percent; assay type: cell-based; settings: SF-539, CNS cancer; 10 μM, 48 h incubation; 100% = growth without drug
60 tumor cell lines = test: NCI 60-cell line in vitro screen, whole panel; assay type: cell-based; settings: 48/59 cell lines; 10 μM, 48 h incubation
[2] = Stability in acidic conditions (pH 2, 50° C., 24 h; TLC / UV ratio); assay type: physicochemical
Description: as §1
The binding study was also used for an indirect assessment of the stability of the nucleoside-BPs in acidic conditions. Binding was reduced by 13% compared to the untreated compound when a solution of 5-FdU-ale was acidified to pH 2 and kept at 50° C. during 24 h prior to the adsorption to hydroxyapatite. The unchanged A250/260 and 280/260 UV-ratio indicate that no cleavage of 5-FdU-ale into the monomer 5-FdU+ ale occurs during treatment with hydroxyapatite under the used conditions.
Thus, the absence of UV-active compounds allows to conclude that 5-FdU-ale is very stable in acidic conditions.

SNB-75 = test: NCI 60-cell line in vitro screen (SRB), growth percent; assay type: cell-based; settings: SNB-75, CNS cancer; 10 μM, 48 h incubation; 100% = growth without drug
CAKI-1 = test: as above; assay type: cell-based; settings: CAKI-1, Renal cancers; 10 μM, 48 h incubation; 100% = growth without drug
MALME-3M = test: as above; assay type: cell-based; settings: Melanomas, 10 μM, 48 h incubation, 100% = growth without drug
HL-60 (TB) = test: as above; assay type: cell-based; settings: Leukemia, 10 μM, 48 h incubation, 100% = growth without drug
HOP-62 = test: as above; assay type: cell-based; settings: HOP-62, Non-small cell lung cancer; 10 μM, 48 h incubation; 100% = growth without drug
SF-268 = test: as above; assay type: cell-based; settings: SF-268, CNS cancer; 10 μM, 48 h incubation; 100% = growth without drug
OVCAR-3 = test: as above; assay type: cell-based; settings: OVCAR-3, Ovarian cancers; 10 μM, 48 h incubation; 100% = growth without drug
NCI-H322M = test: as above; assay type: cell-based; settings: Non-small cell lung cancer, 10 μM, 48 h incubation, 100% = growth without drug
EKVX = test: as above; assay type: cell-based; settings: Non-small cell lung cancer, 10 μM, 48 h incubation, 100% = growth without drug
MDA-MB-435 = test: as above; assay type: cell-based; settings: MDA-MB-435, Melanomas; 10 μM, 48 h incubation; 100% = growth without drug
[3] = system: 6 different tumor cell lines; settings: 6 days of incubation, in average, read-out: concentration for 50% growth inhibition; cited from earlier work
[4] = hydroxyapatite 7 g, drug in 100 ml water, 24 h room temperature
[5] = hydroxyapatite 5 g, drug in 100 ml water, 24 h room temperature
[6] = hydroxyapatite 7 g, acid pretreatment (pH 2, 50° C., 24 h, then neutralized)

O=c1[nH]c(=O)n([C@H]2C[C@H](O)[C@@H](CO)O2)cc1F [5-FdU, 2′-deoxy-5-fluorouridine, reference compound]
Bound drug % [1, 4]: 15%
Bound drug mg [1, 4]: 37 mg

O=c1nc(NCCCC(O)(P(=O)(O)O)P(=O)(O)O)c(F)cn1C1CC(O)C(CO)O1 (centres unmarked) [6a, N^4-[butyl-(4-hydroxy-4-phosphono)phosphonate]-5-fluoro-2′-deoxycytidine]
Growth [%] (SF-539): 94.79%
growth inhibition in the other cell lines (60 tumor cell lines): did not show any growth inhibition
cleavage into the monomers 5-FdU + ale ([2]; during treatment with hydroxyapatite, unchanged A250/260 and 280/260 UV-ratio): no cleavage
stability in acidic conditions ([2]; pH 2, 50° C., 24 h, TLC of supernatant, no UV-active compounds): very stable
Growth [%] (SNB-75): 87.12%
Growth [%] (CAKI-1): 79.14%
Growth [%] (MALME-3M): 89.24%
Growth [%] (HL-60 (TB)): 61.75%
Growth [%] (HOP-62): 93.16%
reduction of binding compared to the untreated compound ([1]; acidified to pH 2, 50° C., 24 h prior to adsorption): 13%
Bound drug % [1, 5]: 41%
Bound drug mg [1, 5]: 195 mg
adsorption to hydroxyapatite relative to 5-FdU ([1]; hydroxyapatite 7 g): approximately sixfold higher
Bound drug % [1, 6]: 74%
Bound drug mg [1, 6]: 352 mg
Bound drug % [1, 4]: 87%
Bound drug mg [1, 4]: 414 mg
Growth [%] (SF-268): 86.64%
Growth [%] (OVCAR-3): 88.34%
Growth [%] (NCI-H322M): 88.84%
Growth [%] (EKVX): 82.45%
Growth [%] (MDA-MB-435): 86.95%

O=P(O)(O)C(Cl)(Cl)P(=O)(O)O [Clondronat]
IC50 [3]: 1 to 1410 µM

NCCCC(O)(P(=O)(O)O)P(=O)(O)O [alendronate, (4-Amino-1-hydroxy-1-phosphonobutyl)phosphonate monosodium salt*3H20]
IC50 [3]: 11 to 1860 µM
